# Reference: ChEMBL document CHEMBL1150152, “Araguspongines K and L, new bioactive bis-1-oxaquinolizidine N-oxide alkaloids from Red Sea specimens of Xestospongia exigua” (J Nat Prod, 2002)
# The source made the active and inactive calls. The calls are words filed in the database; no cut-off is given here.
# What was measured:
# Plasmodium falciparum [1] = assay: Antimalarial activity against Plasmodium falciparum D6; assay type: functional, organism-based
# Plasmodium falciparum [2] = assay: Antimalarial activity against Plasmodium falciparum W2; assay type: functional, organism-based
# [3] = test system: Mycobacterium tuberculosis; assay: Antitubercular activity against Mycobacterium tuberculosis H37Rv by alamar blue assay; assay type: functional
SMILES,IC50 (Plasmodium falciparum [1]),IC50 (Plasmodium falciparum [2]),Activity (Plasmodium falciparum [1]),Activity (Plasmodium falciparum [2]),MIC [3]
C[C@@H]1CC[C@H]2[C@@H](C)C(=O)O[C@@H]3O[C@@]4(C)CC[C@@H]1[C@]32OO4 [ARTEMISININ],0.006 µg/mL,0.007 µg/mL,,,
[O-][N+]12CCC[C@]3(O)CCCCCC[C@@H]4CCN5CCC[C@](O)(CCCCCC[C@H](CC1)O[C@@H]32)[C@@H]5O4 (stereo not given in full),,,inactive,inactive,
O[C@]12CCCCCC[C@@H]3CCN4CCC[C@](O)(CCCCCC[C@@H]5CCN(CCC1)[C@H]2O5)[C@@H]4O3,0.67 µg/mL,0.28 µg/mL,,,3.94 µM
CO[C@H]1/C=C/O[C@@]2(C)Oc3c(C)c(O)c4c(O)c(c(/C=N/N5CCN(C)CC5)c(O)c4c3C2=O)NC(=O)/C(C)=C\C=C\[C@H](C)[C@H](O)[C@@H](C)[C@@H](O)[C@@H](C)[C@H](OC(C)=O)[C@@H]1C [RIFAMPIN],,,,,0.61 µM
[O-][N+]12CCC[C@]3(O)CCCCCC[C@@H]4CCN5CCC[C@@H](CCCCCC[C@H](CC1)O[C@@H]32)[C@@H]5O4 (stereo not given in full),,,inactive,inactive,
